In this experiment the test system is BDF1 mice, P388 leukemia ip, median survival T/C. In words: NCI In Vivo Anticancer Drug Screen. Data for tumor model P388 Leukemia (intraperitoneal) in B6D2F1 (BDF1) mice. As to conditions: endpoint: median survival time, higher = longer survival. The essentials: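 Compound-treated tumour-bearing mice were compared with vehicle-treated controls. Survival was recorded, and the value is the treated-group measurement divided by the control-group measurement (T/C).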

Setting [1] is: dose: 200.0 mg/kg/injection, schedule: Q04DX003 (ip), vehicle: saline with Tween-80.
The mark [2] stands for this setting: dose: 400.0 mg/kg/injection, schedule: Q04DX003 (ip), vehicle: saline with Tween-80.
Where [3] appears, read: dose: 75.0 mg/kg/injection, schedule: Q01DX009 (ip), vehicle: Klucel (hydroxypropylcellulose) (HPC).
Setting [4] is: dose: 100.0 mg/kg/injection, schedule: Q04DX003 (ip), vehicle: Klucel (hydroxypropylcellulose) (HPC).
The mark [5] stands for this setting: dose: 25.0 mg/kg/injection, schedule: Q01DX009 (ip), vehicle: saline with Tween-80.
Setting [6] is: dose: 50.0 mg/kg/injection, schedule: Q01DX009 (ip), vehicle: saline with Tween-80.
Where [7] appears, read: dose: 100.0 mg/kg/injection, schedule: Q01DX009 (ip), vehicle: saline with Tween-80.
Setting [8] is: dose: 200.0 mg/kg/injection, schedule: Q01DX009 (ip), vehicle: saline with Tween-80.

Among the data in PubChem BioAssay AID328 (DTP/NCI, 2004) are T/C values, retold here.

Each structure is given as a SMILES string. Values joined by “and” are separate entries in the source; they are usually repeats but may differ in a detail not shown here. Identical values can stand only once. Toxic doses and inconclusive results are not listed.

As for `CC(=O)C1COC(O)C1C` (configuration not stated), the T/C is 95 % of control (dose: 0.63 mg/kg/injection, schedule: Q01DX010 (ip), vehicle: saline); 115 % of control and 103 % of control (dose: 1.25 mg/kg/injection, schedule: Q01DX009 (ip), vehicle: saline); 100 % of control (dose: 1.25 mg/kg/injection, schedule: Q01DX010 (ip), vehicle: saline); 116 % of control (dose: 2.5 mg/kg/injection, schedule: Q01DX010 (ip), vehicle: saline).

With `O=C(O)CCSSc1ccc([N+](=O)[O-])cc1[N+](=O)[O-]`, the T/C by setting is: (dose: 6.25 mg/kg/injection, schedule: Q01DX009 (ip), vehicle: Klucel (hydroxypropylcellulose) (HPC)) 95 % of control; (dose: 6.25 mg/kg/injection, schedule: Q04DX003 (ip), vehicle: Klucel (hydroxypropylcellulose) (HPC)) 100 % of control; (dose: 12.5 mg/kg/injection, schedule: Q01DX009 (ip), vehicle: Klucel (hydroxypropylcellulose) (HPC)) 100 % of control; (dose: 12.5 mg/kg/injection, schedule: Q04DX003 (ip), vehicle: Klucel (hydroxypropylcellulose) (HPC)) 109 % of control; (dose: 25.0 mg/kg/injection, schedule: Q01DX009 (ip), vehicle: Klucel (hydroxypropylcellulose) (HPC)) 104 % of control; (dose: 25.0 mg/kg/injection, schedule: Q04DX003 (ip), vehicle: Klucel (hydroxypropylcellulose) (HPC)) 109 % of control.

For the compound `COc1cc2c3cc1Oc1c(OC)c(OC)cc4c1C(Cc1ccc(OC(C)=O)c(c1)Oc1ccc(cc1)CC3N(C)CC2)N(C)CC4` (configuration not stated), the T/C by setting is: (dose: 12.5 mg/kg/injection, schedule: Q04DX003 (ip), vehicle: saline with Tween-80) 100 % of control; (dose: 25.0 mg/kg/injection, schedule: Q04DX003 (ip), vehicle: saline with Tween-80) 109 % of control; (dose: 50.0 mg/kg/injection, schedule: Q04DX003 (ip), vehicle: saline with Tween-80) 100 % of control; under setting [1], 95 % of control; under setting [2], 90 % of control.

For the compound `c1ccc(C2OC2c2ccccc2)cc1` (configuration not stated), the T/C by setting is: (dose: 50.0 mg/kg/injection, schedule: Q04DX003 (ip), vehicle: Klucel (hydroxypropylcellulose) (HPC)) 89 % of control; under setting [3], 90 % of control; under setting [4], 89 % of control; (dose: 150.0 mg/kg/injection, schedule: Q01DX009 (ip), vehicle: Klucel (hydroxypropylcellulose) (HPC)) 104 % of control; (dose: 300.0 mg/kg/injection, schedule: Q01DX009 (ip), vehicle: Klucel (hydroxypropylcellulose) (HPC)) 104 % of control.

Consider `NC(N)=NC(N)=Nc1ccc(Cl)c(Cl)c1`, for which the T/C under setting [5] is 98 % of control and the T/C under setting [6] was 121 % of control.

In the case of `CCN(C(=O)C(F)(F)F)C(C)(C)C(SSSC(c1ccc(Cl)cc1)C(C)(C)N(CC)C(=O)C(F)(F)F)c1ccc(Cl)cc1` (configuration not stated), the T/C by setting is: (dose: 22.0 mg/kg/injection, schedule: Q01DX009 (ip), vehicle: Klucel (hydroxypropylcellulose) (HPC)) 115 % of control; (dose: 33.0 mg/kg/injection, schedule: Q01DX009 (ip), vehicle: Klucel (hydroxypropylcellulose) (HPC)) 115 % of control; (dose: 50.0 mg/kg/injection, schedule: Q01DX009 (ip), vehicle: Klucel (hydroxypropylcellulose) (HPC)) 120 % of control; under setting [3], 120 % of control; (dose: 100.0 mg/kg/injection, schedule: Q01DX009 (ip), vehicle: Klucel (hydroxypropylcellulose) (HPC)) 100 % of control; under setting [4], 112 % of control. In addition, the T/C (dose: 200.0 mg/kg/injection, schedule: Q04DX003 (ip), vehicle: Klucel (hydroxypropylcellulose) (HPC)) is 116 % of control.

Regarding `O=[N+]([O-])c1cc2no[n+]([O-])c2cc1N1CCN(c2cc3c(cc2[N+](=O)[O-])no[n+]3[O-])CC1`, the T/C reads like this: (dose: 15.0 mg/kg/injection, schedule: Q01DX009 (ip), vehicle: saline with Tween-80) 97 % of control; (dose: 30.0 mg/kg/injection, schedule: Q01DX009 (ip), vehicle: saline with Tween-80) 98 % of control; (dose: 60.0 mg/kg/injection, schedule: Q01DX009 (ip), vehicle: saline with Tween-80) 97 % of control.

For the compound `COC(=O)CS(=O)(=O)C(C)(C)C(=O)c1ccccc1`, the T/C (dose: 75.0 mg/kg/injection, schedule: Q01DX001 (ip), vehicle: other) was 100 % of control; the T/C (dose: 150.0 mg/kg/injection, schedule: Q01DX001 (ip), vehicle: other) was 120 % of control; the T/C (dose: 300.0 mg/kg/injection, schedule: Q01DX001 (ip), vehicle: other) is 110 % of control.

Consider `BrCc1cc2ccccc2cc1CBr`, for which the T/C (dose: 25.0 mg/kg/injection, schedule: Q04DX003 (ip), vehicle: saline) was 116 % of control.

Turning to `C/C(CC(c1ccccc1)N1CCc2ccccc2C1)=N/O` (configuration not stated), the T/C is 104 % of control (dose: 100.0 mg/kg/injection, schedule: Q04DX003 (ip), vehicle: saline sonified); 109 % of control (dose: 200.0 mg/kg/injection, schedule: Q04DX003 (ip), vehicle: saline sonified); 90 % of control (dose: 400.0 mg/kg/injection, schedule: Q04DX003 (ip), vehicle: saline sonified).

As to `CC(=O)O[C@H]1CC[C@H]2[C@@H]3[C@H](C)CC4=CC(=O)CCC4[C@H]3CC[C@]12C` (some centres not stated), the T/C by setting is: under setting [7], 95 % of control; (dose: 100.0 mg/kg/injection, schedule: Q04DX003 (ip), vehicle: saline with Tween-80) 100 % of control; under setting [8], 90 % of control; under setting [1], 95 % of control; (dose: 400.0 mg/kg/injection, schedule: Q01DX009 (ip), vehicle: saline with Tween-80) 100 % of control; under setting [2], 100 % of control.

Turning to `CCC1CC(O)c2c(O)c3c(c(O)c2C1O)C(=O)c1cccc(O)c1C3=O` (configuration not stated) (tested in a mixture with another compound), the T/C is 100 % of control (dose: 0.5 mg/kg/injection, schedule: Q01DX001 (ip), vehicle: saline); 109 % of control (dose: 1.0 mg/kg/injection, schedule: Q01DX001 (ip), vehicle: saline); 109 % of control (dose: 2.0 mg/kg/injection, schedule: Q01DX001 (ip), vehicle: saline).

`CC(=O)NC(Cc1ccc(N(CCCl)CCCl)cc1)C(=O)O` (configuration not stated): the T/C by setting is: (dose: 1.56 mg/kg/injection, schedule: Q01DX009 (ip), vehicle: water) 110 % of control; (dose: 3.12 mg/kg/injection, schedule: Q01DX009 (ip), vehicle: water) 123 % of control; (dose: 6.25 mg/kg/injection, schedule: Q01DX009 (ip), vehicle: water) 118 % of control; (dose: 12.5 mg/kg/injection, schedule: Q04DX003 (ip), vehicle: water) 172 % of control; (dose: 25.0 mg/kg/injection, schedule: Q01DX009 (ip), vehicle: water) 203 % of control; (dose: 25.0 mg/kg/injection, schedule: Q04DX003 (ip), vehicle: water) 164 % of control and 200 % of control. The T/C was 248 % of control (dose: 50.0 mg/kg/injection, schedule: Q01DX009 (ip), vehicle: water); 245 % of control and 200 % of control (dose: 50.0 mg/kg/injection, schedule: Q04DX003 (ip), vehicle: water); 194 % of control (dose: 100.0 mg/kg/injection, schedule: Q04DX003 (ip), vehicle: water).

Regarding `CC(C)(C)c1cc(CO)c(Sc2c(CO)cc(C(C)(C)C)cc2CO)c(CO)c1`, where the note is “dose: 400.0 mg/kg/injection, schedule: Q01DX001 (ip), vehicle: saline with Tween-80”, the T/C is 90 % of control.

With `COc1ccc(/C=C(/C#N)c2ccccc2)cc1`, the T/C under setting [5] is 93 % of control, the T/C under setting [6] is 97 % of control, the T/C under setting [7] is 103 % of control and the T/C under setting [8] was 111 % of control.
